In patent US20230049952A1, “METHODS AND COMPOUNDS FOR RESTORING MUTANT P53 FUNCTION” (PMV Pharmaceuticals, Inc., priority 2020, published 2023):

System: p53 signaling pathway in MT373 tumors
Assay: MT373 syngeneic sarcoma model: mouse p53 signaling pathway profiling panel
Assay type: in vivo

## CCn1c(C#CCNc2ccccc2)cc2cc(CNC3CCN(C)CC3)ccc21 [Compound 1, 1-Anilino-3-{1-ethyl-5-[(1-methyl-4-piperidylamino)methyl]-1H-indol-2-yl}-2-propyne]
150 mg/kg BIDx1, 8 h
  Il6 fold increase or percent reduction vs vehicle control: 42.72 fold or %
  Jun fold increase or percent reduction vs vehicle control: 32.68 fold or %
  Kras fold increase or percent reduction vs vehicle control: 8.77 fold or %
  Lig4 fold increase or percent reduction vs vehicle control: 9.59 fold or %
  Mdm2 fold increase or percent reduction vs vehicle control: 7.29 fold or %
  Mdm4 fold increase or percent reduction vs vehicle control: 0.59 fold or %
  Mel1 fold increase or percent reduction vs vehicle control: 3.87 fold or %
  Mlh1 fold increase or percent reduction vs vehicle control: 28.64 fold or %
  Msh2 fold increase or percent reduction vs vehicle control: 35.13 fold or %
  Myod1 fold increase or percent reduction vs vehicle control: 14.90 fold or %
  Nf1 fold increase or percent reduction vs vehicle control: 17.13 fold or %
  Nfkb1 fold increase or percent reduction vs vehicle control: 6.02 fold or %
  Pcna fold increase or percent reduction vs vehicle control: 44.75 fold or %
  Pmaip1 fold increase or percent reduction vs vehicle control: 2.33 fold or %
  Ppm1d fold increase or percent reduction vs vehicle control: 1.44 fold or %
  Prc1 fold increase or percent reduction vs vehicle control: 17.14 fold or %
  Prkca fold increase or percent reduction vs vehicle control: 27.03 fold or %
  Pten fold increase or percent reduction vs vehicle control: 14.47 fold or %
  Pttg1 fold increase or percent reduction vs vehicle control: 3.91 fold or %
  Rb1 fold increase or percent reduction vs vehicle control: 1.08 fold or %
  Rela fold increase or percent reduction vs vehicle control: 5.08 fold or %
  Rprm fold increase or percent reduction vs vehicle control: 1.81 fold or %
  Serpinb5 fold increase or percent reduction vs vehicle control: 2.43 fold or %
  Sesn2 fold increase or percent reduction vs vehicle control: 2.88 fold or %
  Sfn fold increase or percent reduction vs vehicle control: 15.09 fold or %
  Sirt1 fold increase or percent reduction vs vehicle control: 24.95 fold or %
  Stat1 fold increase or percent reduction vs vehicle control: 1.23 fold or %
  Tnf fold increase or percent reduction vs vehicle control: 1.57 fold or %
  Traf1 fold increase or percent reduction vs vehicle control: 1.4 fold or %
  Trp53bp2 fold increase or percent reduction vs vehicle control: 29.54 fold or %
  Trp53 fold increase or percent reduction vs vehicle control: 16.49 fold or %
150 mg/kg BIDx1, 24 h
  Apex1 fold increase or percent reduction vs vehicle control: 29.90 fold or %
  Atm fold increase or percent reduction vs vehicle control: 24.13 fold or %
  Atr fold increase or percent reduction vs vehicle control: 14.58 fold or %
  Bag1 fold increase or percent reduction vs vehicle control: 32.76 fold or %
  Bax fold increase or percent reduction vs vehicle control: 1.61 fold or %
  Bbc3 fold increase or percent reduction vs vehicle control: 2.27 fold or %
  Bcl2 fold increase or percent reduction vs vehicle control: 20.93 fold or %
  Bid fold increase or percent reduction vs vehicle control: 1.08 fold or %
  Birc5 fold increase or percent reduction vs vehicle control: 53.57 fold or %
  Brca1 fold increase or percent reduction vs vehicle control: 44.99 fold or %
  Brca2 fold increase or percent reduction vs vehicle control: 34.71 fold or %
  Btg2 fold increase or percent reduction vs vehicle control: 1.06 fold or %
  Casp2 fold increase or percent reduction vs vehicle control: 28.04 fold or %
  Ccnb1 fold increase or percent reduction vs vehicle control: 69.21 fold or %
  Ccne1 fold increase or percent reduction vs vehicle control: 38.46 fold or %
  Ccng1 fold increase or percent reduction vs vehicle control: 6.84 fold or %
  Ccnh fold increase or percent reduction vs vehicle control: 16.52 fold or %
  Cdc25a fold increase or percent reduction vs vehicle control: 41.75 fold or %
  Cdk1 fold increase or percent reduction vs vehicle control: 64.58 fold or %
  Cdk4 fold increase or percent reduction vs vehicle control: 55.89 fold or %
  Cdkn1a fold increase or percent reduction vs vehicle control: 10.93 fold or %
  Cdkn2a fold increase or percent reduction vs vehicle control: 36.93 fold or %
  Chek1 fold increase or percent reduction vs vehicle control: 58.77 fold or %
  Cradd fold increase or percent reduction vs vehicle control: 18.77 fold or %
  Cul9 fold increase or percent reduction vs vehicle control: 1.05 fold or %
  Dapk1 fold increase or percent reduction vs vehicle control: 1.14 fold or %
  Dnmt1 fold increase or percent reduction vs vehicle control: 22.85 fold or %
  E2f1 fold increase or percent reduction vs vehicle control: 26.25 fold or %
  E2f3 fold increase or percent reduction vs vehicle control: 39.40 fold or %
  Egfr fold increase or percent reduction vs vehicle control: 47.37 fold or %
  Egr1 fold increase or percent reduction vs vehicle control: 66.33 fold or %
  Ep300 fold increase or percent reduction vs vehicle control: 1.15 fold or %
  Ercc1 fold increase or percent reduction vs vehicle control: 34.86 fold or %
  Esr1 fold increase or percent reduction vs vehicle control: 1.24 fold or %
  Fadd fold increase or percent reduction vs vehicle control: 8.43 fold or %
  Fas fold increase or percent reduction vs vehicle control: 1.94 fold or %
  Fasl fold increase or percent reduction vs vehicle control: 6.77 fold or %
  Foxo3 fold increase or percent reduction vs vehicle control: 1.20 fold or %
  Gadd45a fold increase or percent reduction vs vehicle control: 38.66 fold or %
  Hif1a fold increase or percent reduction vs vehicle control: 10.42 fold or %
  Il6 fold increase or percent reduction vs vehicle control: 85.31 fold or %
  Jun fold increase or percent reduction vs vehicle control: 46.70 fold or %
  Kras fold increase or percent reduction vs vehicle control: 9.19 fold or %
  Lig4 fold increase or percent reduction vs vehicle control: 1.02 fold or %
  Mdm2 fold increase or percent reduction vs vehicle control: 5.96 fold or %
  Mdm4 fold increase or percent reduction vs vehicle control: 1.22 fold or %
  Mel1 fold increase or percent reduction vs vehicle control: 9.59 fold or %
  Mlh1 fold increase or percent reduction vs vehicle control: 10.59 fold or %
  Msh2 fold increase or percent reduction vs vehicle control: 26.97 fold or %
  Myod1 fold increase or percent reduction vs vehicle control: 3.09 fold or %
  Nf1 fold increase or percent reduction vs vehicle control: 12.02 fold or %
  Nfkb1 fold increase or percent reduction vs vehicle control: 5.42 fold or %
